Data published in US20250134876A1, “METHODS OF TREATING A CANCER OVEREXPRESSING ONE OR MORE BCL-2 FAMILY PROTEINS” (Kartos Therapeutics, Inc., priority 2021, published 2025).

What was measured:
CLL tumor cells = assay: p53 and Bcl-2 family protein expression and apoptosis (cPARP+) in patient CLL tumor cells treated ex vivo, intracellular flow cytometry; format: cell-based, human; conditions: CLL tumor cells on HS-5 stromal cells, 24 hours
Experimental: The effect of the compound of Formula (I) on the expression of p53 along with anti-apoptotic and pro-apoptotic proteins was assessed in tumors cells isolated from patients diagnosed with CLL. Blood samples were collected prior to the patient receiving any treatment. CLL tumor cells were isolated and incubated on HS-5 stromal cells for 24 hours and then treated with the compound of Formula (I) for 24 hours. p53 and Bcl-2 family proteins were measured by intracellular flow cytometry and shown as median fluorescent intensity (MFI). The percent cPARP+ is shown above the level of basal spontaneous apoptosis. CLL tumor cells were cultured on HS-5 stromal cells were then treated with an increasing concentrations of the compound of Formula (I) for 24 hours. The result was an increase in intracellular P53 levels along with a decrease in anti-apoptotic Bcl-XL and Mcl-1 levels, and an increase in pro-apoptotic Bax.

[1] = tested on: MV-411 AML cell line (TP53 wild-type); assay: Bcl-2 family protein expression in MV-411 AML cells, intracellular flow cytometry; format: cell-based; conditions: MV-411 cells, 72 hours, above the concentration to induce cell stasis
Experimental: (§1) The effect of the compound of Formula (I) on inducing apoptosis along with the expression of anti-apoptotic and pro-apoptotic protein expression in the MV-411 AML cell was assessed. […] Molecular Cancer Therapeutics. 2015 Mar. 1; 14(3):649-58. After 72 hours of culture with the compound of Formula (I), MV-411 (TP53 wt) and HEL-92 cells (TP53 mutant) were stained with antibodies against various Bcl-2 family proteins and data acquired using intracellular flow cytometry (FIG. 5(B)).

[2] = tested on: HEL-92 cells (TP53 mutant); assay: Bcl-2 family protein expression in HEL-92 cells, intracellular flow cytometry; format: cell-based; conditions: 72 hours
Experimental: as §1

[3] = tested on: UKE-1 myelofibrosis cell line (TP53 wild-type); assay: Pro-apoptotic protein expression in UKE-1 myelofibrosis cell line, intracellular flow cytometry; format: cell-based; conditions: UKE-1 cells, 2.5 pM, 24, 48 and 72 hours, time-dependent
Experimental: The compound of Formula (I) induces Bak, Bax and BIM expression in a myelofibrosis cell line. The UKE-1 myelofibrosis cell line (TP53 wild-type) was cultured for 24, 48 and 72 hours with 2.5 pM of compound (equivalent to levels observed in vivo following administration in patients) and stained with antibodies against various pro-apoptotic protein using intracellular flow cytometry techniques. […] The upper line is cells treated with the compound of Formula (I) while the lower line is a control (no treatment).

[4] = tested on: patients with R/R myelofibrosis; assay: mRNA expression in cells isolated from treated patients with R/R myelofibrosis; format: in vivo, human; conditions: 120 mg or 240 mg for 5 or 7 days, C1D1 pre-dose vs C1D5
Experimental: Treatment of patients with the compound of Formula (I) induces p21, Bax and Puma expression in vivo in patients with R/R myelofibrosis or R/R AML. mRNA expression in cells isolated from patients was evaluated pre-dosing on day 1 and 24 hours after the first course of treatment with the compound of Formula (I) in patients with R/R myelofibrosis (FIG. 7(A)). The compound of Formula (I) is administered at 120 mg for 7 days for Cohort 1, 240 mg for 7 days for Cohort 2, 240 mg for 7 days for Cohort 3, and 240 mg for 5 days for Cohort 4. Samples taken at pre-dose on Cycle 1, Day 1 (C1D1) and Cycle 1, Day 5 (C1D5).

patients with R/R AML = assay: Gene expression in PBMC from treated patients with R/R AML; format: in vivo, human
Experimental: For patients with R/R AML, the compound of Formula (I) was administered at 120 mg (n=3), 180 mg (n=2), 240 mg (n=8), or 360 mg (n=4) daily for QD for seven days in dose-escalation phase, with different ‘off-treatment’ duration depending on cohort assignments. Samples taken at pre-dose on Cycle 1, Day 1 (C1D1) and Cycle 1, Day 5 (C1D5).
Treatment of patients with R/R AML with the compound of Formula (I) induces expression of genes involved in the Bcl-2 apoptotic pathway. […] FIG. 8 illustrates induced expression of Bcl-2 genes in PBMC following treatment of R/R AML patients with the compound of Formula (I). Eighteen genes were included in analysis: BAD, BAX, BCL2L1, MCL1, BCL2, BID, CAPN2, CASP10, CASP3, CASP7, CASP8, CASP9, TNFRSF10A, TNFRSF10B, TP53, PUMA, NOXA and STAT3. Experimental data was obtained similar to the method set forth in Example 4.

[5] = 120-360 mg QD for seven days, C1D1 pre-dose vs C1D5

CC(C)[C@@H](CS(=O)(=O)C(C)C)N1C(=O)[C@@](C)(CC(=O)O)C[C@H](c2cccc(Cl)c2)[C@H]1c1ccc(Cl)cc1 [Formula (I), 2-((3R,5R,6S)-5-(3-chlorophenyl)-6-(4-chlorophenyl)-1-((S)-1-(isopropylsulfonyl)-3-methylbutan-2-yl)-3-methyl-2-oxopiperidin-3-yl) acetic acid]
expression of anti-apoptotic protein Bcl-2 (CLL tumor cells): decreased expression
expression of pro-apoptotic protein Bak (CLL tumor cells): increased expression
cell apoptosis (percent cPARP+ above basal spontaneous apoptosis) (CLL tumor cells; increasing concentrations): increased cell apoptosis in a dose-dependent manner
anti-apoptotic Bcl-XL levels (CLL tumor cells; increasing concentrations, MFI): decrease
anti-apoptotic Mcl-1 levels (CLL tumor cells; increasing concentrations, MFI): decrease
intracellular P53 levels (CLL tumor cells; increasing concentrations, MFI): increase
pro-apoptotic Bax levels (CLL tumor cells; increasing concentrations, MFI): increase
anti-apoptotic Bcl-2 family proteins [1]: decrease
pro-apoptotic effector protein Bak [1]: increase
pro-apoptotic effector protein Bax [1]: increase
changes in Bcl-2 family proteins [2]: no changes
protein expression of BIM [3]: induced protein expression
protein expression of Bak [3]: induced protein expression
protein expression of Bax [3]: induced protein expression
expression of Bax (mRNA) [4]: increased expression
expression of p21 (mRNA) [4]: increased expression
expression of Bax (gene expression) (patients with R/R AML; [5]): increased expression
expression of Puma (gene expression) (patients with R/R AML; [5]): increased expression
expression of p21 (gene expression) (patients with R/R AML; [5]): increased expression
expression of genes involved in the BCL2 family/apoptosis pathway (patients with R/R AML; cells isolated from peripheral blood (PBMC), eighteen genes): induced the expression
